Assay results as given in publication PMC8752837, “Structural basis of BAK activation in mitochondrial apoptosis initiation” (Nature Communications, 2022).
Residue numbers refer to the chain shown, from its start. Values joined by “and” are separate entries in the source; they are usually repeats but may differ in a detail not shown here. Equal values may be shown once.

How the values were obtained:
I81R BAK = target: T1, I81R BAK (Homo sapiens, UniProt Q16611, I81R); assay: Isothermal titration calorimetry with mutant BAK; type: binding; conditions: KD could not be obtained by ITC or SPR
T1 construct: To generate tevBAK (residues 22–186), we cleaved off the histidine tag with TEV protease; His tag (vector pNIC28-Bsa4) (N, cleaved yes); made in house; host or cells: E. coli T7 Express pLac I/Y
T1 sequence (Q16611 22-186 I81R): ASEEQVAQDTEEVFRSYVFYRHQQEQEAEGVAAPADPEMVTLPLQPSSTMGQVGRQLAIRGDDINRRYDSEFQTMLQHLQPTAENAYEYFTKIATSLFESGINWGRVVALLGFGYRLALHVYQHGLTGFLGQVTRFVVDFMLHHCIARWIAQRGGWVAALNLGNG
Method: Protein samples were exchanged into 20 mM HEPES, 100 mM NaCl and 1 mM TCEP prior to the experiment. Titrations were performed by first injecting 0.5 μl of 250 or 500 µM BID BH3 peptides into a solution of 20 or 50 µM BAK followed by additional 2 μl injections. […] Results were analyzed using Origin software (OriginLab) provided by MicroCal. Binding constants (KD) and thermodynamic parameters were calculated from the average of two or three individual titrations by fitting the data to a single site binding model using a nonlinear least-squares fitting algorithm.

D83A(s) BAK = target: T2, D83A(s) BAK (Homo sapiens, UniProt Q16611, D83A); assay: Liposome permeabilization assay: BH3 peptide activation of D83A(s) BAK receptor; type: biochemical; conditions: for liposome permeabilization by 50 nM D83A(s) BAK receptor: 50 nM mutant BAK, Suppl. Fig. 4f; for EC50: EC50 of liposome permeabilization by 200 nM D83A(s) BAK, 200 nM D83A(s) BAK, Suppl. Fig. 3e, 4e
T2 construct: C-terminus truncated recombinant human BAK containing C-terminal 6× histidine tag (MEAS-BAK); made in house; host or cells: E. coli T7 Express pLac I/Y
T2 sequence (Q16611 1-186 D83A limits assumed): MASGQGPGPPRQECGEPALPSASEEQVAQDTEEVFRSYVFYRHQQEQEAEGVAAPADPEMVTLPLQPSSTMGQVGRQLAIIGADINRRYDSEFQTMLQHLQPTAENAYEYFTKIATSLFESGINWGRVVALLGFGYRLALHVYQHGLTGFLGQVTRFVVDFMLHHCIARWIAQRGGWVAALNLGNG
Method: We performed liposome permeabilization assays as previously described[43]-[46]. […] We mixed the lipid film in ANTS/DPX solution by vortexing and sonication (~15 min) followed by extrusion through polycarbonate membrane of 2 μm pore size (Avanti Polar lipids) to generate homogenous large unilamellar vesicles (LUVs). We separated LUVs from free ANTS/DPX by S500 size exclusion chromatography and stored them at 4 °C in the dark. We prepared peptide and protein dilutions in 96-well black flat bottom plates (Costar) kept on ice. […] We quantified liposome permabilization by integrating area under curve (AUC) of normalized traces based on the Simpson's equation, and analyzed that data in Excel and GraphPad Prism. AUC measurements reflect the kinetic and extent of liposome permeabilization and provide quantitative means for comparison between different experimental conditions (e.g., BAK mutants with gross or partial variation in activity). Variability in permeabilization of different liposomes is common and our analyses compare among conditions investigated with the same liposomes. Although the absolute permeabilization values may differ, the trends for the same conditions are always very similar between different liposomes.

I81R(3) BAK = target: T3, I81R(3) BAK (Homo sapiens, UniProt Q16611, I81R); assay: Liposome permeabilization assay: BH3 peptide activation of I81R(3) BAK receptor; type: biochemical; conditions: 50 nM mutant BAK; Suppl. Fig. 4f
T3 construct: C-terminus truncated recombinant human BAK containing C-terminal 6× histidine tag (MEAS-BAK); made in house; host or cells: E. coli T7 Express pLac I/Y
T3 sequence (Q16611 1-186 I81R limits assumed): T2 sequence (Q16611 1-186 D83A limits assumed) with I81R, A83D
Method: We next compared activation of mutant BAK receptors by WT BID BH3 and WT BAK BH3 peptide ligands. At concentrations above 1 µM, both peptide ligands would activate WT or V74A(1) BAK (Supplementary Figs. 3e, 4d, e, and Supplementary Table 1).
We performed liposome permeabilization assays as previously described[43]–[46]. […] (nickel salt) [DGS NTA(Ni), 2.5 μM final concentration in each assay] (Avanti Polar Lipids). We prepared 12.5 mM fluorophore; 8-aminonaphthalene-1, 3, 6-trisulfonic acid, disodium salt (ANTS) and 45 mM quencher; p-xylene-bis-pyridiniumbromide (DPX) in LUV buffer (10 mM HEPES pH 6.8, 200 mM KCl and 5 mM MgCl2). We mixed the lipid film in ANTS/DPX solution by vortexing and sonication (~15 min) followed by extrusion through polycarbonate membrane of 2 μm pore size (Avanti Polar lipids) to generate homogenous large unilamellar vesicles (LUVs). We separated LUVs from free ANTS/DPX by S500 size exclusion chromatography and stored them at 4 °C in the dark. We prepared peptide and protein dilutions in 96-well black flat bottom plates (Costar) kept on ice. ANTS release from permeabilized liposomes causes an increase in fluorescence, which we monitored at 37 °C for 90 min using a CLARIOSTAR microplate reader (BMG Labtech) set at excitation and emission wavelengths of 360 and 530 nm, respectively. We normalized the data relative to maximum and minimum fluorescence induced by 3% CHAPS and buffer controls, respectively. We quantified liposome permabilization by integrating area under curve (AUC) of normalized traces based on the Simpson’s equation, and analyzed that data in Excel and GraphPad Prism. AUC measurements reflect the kinetic and extent of liposome permeabilization and provide quantitative means for comparison between different experimental conditions (e.g., BAK mutants with gross or partial variation in activity). Variability in permeabilization of different liposomes is common and our analyses compare among conditions investigated with the same liposomes. […]

| SMILES | affinity for I81R BAK extrapolated by applying 2-fold difference compared to WT (I81R BAK) | liposome permeabilization by 50 nM D83A(s) BAK receptor (D83A(s) BAK) | EC50 (D83A(s) BAK) | liposome permeabilization by 50 nM I81R(3) BAK receptor (I81R(3) BAK) |
| --- | --- | --- | --- | --- |
| CC[C@H](C)[C@H](NC(=O)[C@H](C)NC(=O)[C@H](CC(C)C)NC(=O)[C@H](CCC(N)=O)NC(=O)[C@H](CCCNC(=N)N)NC(=O)CNC(=O)[C@@H](NC(=O)[C@H](CCC(N)=O)NC(=O)CNC(=O)[C@H](CCSC)NC(=O)[C@@H](NC(=O)[C@H](CO)NC(=O)[C@H](CO)NC(C)=O)[C@@H](C)O)C(C)C)C(=O)N[C@H](C(=O)NCC(=O)N[C@@H](CC(=O)O)C(=O)N[C@@H](CC(=O)O)C(=O)N[C@H](C(=O)N[C@@H](CC(N)=O)C(=O)N[C@@H](CCCNC(=N)N)C(=O)N[C@@H](CCCNC(=N)N)C(=O)N[C@@H](Cc1ccc(O)cc1)C(N)=O)[C@@H](C)CC)[C@@H](C)CC [WT BAK BH3] | ~ 130 µM | neither peptide ligands could promote liposome permeabilization | 4 to 7 µM and 5 to 7 µM | neither peptide ligands could promote liposome permeabilization |
| CC[C@H](C)[C@H](NC(=O)[C@H](CO)NC(=O)[C@H](CCCNC(=N)N)NC(=O)[C@H](CC(=O)O)NC(=O)[C@H](CCSC)NC(=O)[C@H](CO)NC(=O)[C@H](CC(=O)O)NC(=O)CNC(=O)[C@@H](NC(=O)[C@H](CCC(N)=O)NC(=O)[C@H](C)NC(=O)[C@H](CC(C)C)NC(=O)[C@H](Cc1c[nH]cn1)NC(=O)[C@H](CCCNC(=N)N)NC(=O)[C@H](C)NC(=O)[C@@H](NC(=O)[C@H](CC(N)=O)NC(=O)[C@H](CCCNC(=N)N)NC(=O)[C@@H](NC(=O)[C@@H](NC(=O)[C@H](CC(=O)O)NC(=O)[C@H](CCC(=O)O)NC(C)=O)[C@@H](C)CC)[C@@H](C)CC)[C@@H](C)CC)C(C)C)C(N)=O [WT BID BH3, reference compound] | ~ 130 µM | neither peptide ligands could promote liposome permeabilization | 4 to 7 µM and 5 to 7 µM | neither peptide ligands could promote liposome permeabilization |
